Reference: patent publication US20220062258A1, “Heterocyclic derivatives” (Merck Patent GmbH, priority 2019, published 2022)

Assays:
MetAP-2 [1] = target: T1, MetAP-2 (Homo sapiens, UniProt P50579); test: Biochemical activity testing of MetAP-2 (enzyme-coupled assay, Met-Ala-Ser substrate); design: N-terminal His tag human rec MetAP2 (prepared in house, AA 2-478, final concentration (fc) 123 nM); His tag (N); TEV cleavage site (N); made in house
Procedure: Biochemical Activity Testing of MetAP-2
MetAP-2 activity was determined by an enzyme-coupled assay using the tripeptide Met-Ala-Ser (MAS) as substrate and recombinant human MetAP-2 (His-Tev-MetAP-2, prepared at Merck). The released methionine is converted by L-amino acid oxidase (AAO) to oxidized Methionine and hydrogen peroxide is released. In a second step horse radish peroxidase catalyzes the oxidation of the leuko dye dianisidine to oxidized dianisidine using hydrogen peroxide as co-substrate. The produced dianisidine ox was detected photometrically as increase in absorbance at 450 nm. Met-AP2 activity was determined in a kinetic measurement mode. The release of one molecule methionine corresponds to the production of one molecule dianisidine ox. The MetAP2 enzymatic activity is directly corresponding to the increase in absorbance per time.
In detail, the assay was performed in 384 well microtiter plate (Greiner 78110 MTP, transparent) in a total reaction volume of 50 μl at 22° C. 0.35 μg of N-terminal His tag human rec MetAP2 (prepared in house, AA 2-478, final concentration (fc) 123 nM), 1 unit horse radish Peroxidase (Roche, Mannheim), 0.02 unit L-amino acid oxidase (Merck, Darmstadt), 0.6 mM dianisidine (Merck, Darmstadt, dissolved in 50 mM HCl, 10% DMSO) were incubated in the absence or presence of the test compound (10 dilution concentrations) in 100 mM Hepes, 50 mM NaCl, 50 μM MnCl2 at pH 7.0 for 15 min at 22° C. The reaction was started by the addition of 500 μM (fc) MAS peptide (Merck, Darmstadt). After mixing the first absorbance measurement was performed on an Envision multimode reader (Perkin-Elmer, Waltham) at wavelength of 450 nm. The reaction was incubated at 22° C. for additional 45 min and the second absorbance measurement was performed. The increase of absorbance per time was determined. The control value used was the inhibitor-free reaction with 0.5% DMSO (fc). As pharmacological inhibitor control Fumagillin (Merck, Darmstadt) in a final concentration of 5 μM was used. The inhibitory values (IC50) were determined using the program ASSAY ANALYZER® from GeneData (Basel, Switzerland).
Target sequence in this assay (P50579 2-478): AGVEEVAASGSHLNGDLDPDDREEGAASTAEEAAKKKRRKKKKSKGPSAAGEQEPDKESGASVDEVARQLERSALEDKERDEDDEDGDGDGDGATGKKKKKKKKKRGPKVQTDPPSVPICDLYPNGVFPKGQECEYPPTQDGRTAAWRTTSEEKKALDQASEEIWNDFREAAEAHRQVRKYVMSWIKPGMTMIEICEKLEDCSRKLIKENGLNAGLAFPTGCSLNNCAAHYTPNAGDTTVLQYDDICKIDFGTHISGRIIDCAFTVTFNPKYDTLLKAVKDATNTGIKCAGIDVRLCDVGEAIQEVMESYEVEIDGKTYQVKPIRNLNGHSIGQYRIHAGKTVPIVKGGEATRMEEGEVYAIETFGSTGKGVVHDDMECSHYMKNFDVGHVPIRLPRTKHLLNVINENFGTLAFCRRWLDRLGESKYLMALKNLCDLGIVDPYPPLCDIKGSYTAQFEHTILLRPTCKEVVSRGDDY

MetAP-2 [2] = target: T1, MetAP-2; test: Degradation of MetAP-2 in HCT116 cells (Western blot, MetAp2/GAPDH signal); format: cell-based; design: endogenous in cells; host or cells: HCT116; conditions: for Signal MetAp2/GAPDH normalized to untreated (DMSO): HTC116 cells, <1 means degradation
Target sequence in this assay (P50579 whole entry, the tested form may be a part): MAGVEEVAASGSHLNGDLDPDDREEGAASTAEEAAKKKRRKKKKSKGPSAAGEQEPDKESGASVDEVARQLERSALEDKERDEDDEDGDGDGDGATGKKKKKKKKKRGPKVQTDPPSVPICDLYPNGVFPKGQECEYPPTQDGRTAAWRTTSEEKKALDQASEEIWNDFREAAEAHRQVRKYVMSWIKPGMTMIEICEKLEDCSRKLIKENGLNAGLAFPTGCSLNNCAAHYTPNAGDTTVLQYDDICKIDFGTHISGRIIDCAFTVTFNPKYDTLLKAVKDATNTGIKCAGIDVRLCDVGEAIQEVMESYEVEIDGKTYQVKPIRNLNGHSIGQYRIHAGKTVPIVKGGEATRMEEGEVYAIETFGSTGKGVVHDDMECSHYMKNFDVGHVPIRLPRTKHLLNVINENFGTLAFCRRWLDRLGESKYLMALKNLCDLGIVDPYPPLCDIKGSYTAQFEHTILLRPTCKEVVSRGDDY

[3] = system: HUVEC primary endothelial cells; test: HUVEC proliferation assay (CyQUANT Direct); format: cell-based; conditions: Homo sapiens, 72 h, 3 days incubation
Procedure: HUVEC Proliferation Assay
Proliferation of HUVEC primary endothelial cells was used as cell-based mechanistical assay.^25 Applying the CyQUANT@ Direct Cell Proliferation Assay (Invitrogen C35011) which is based on a cell-permeant fluorescent DNA-binding dye, DNA content is used as a direct measure for cell number. Pooled HUVEC cells (Promocell C-12203) are cultivated in the medium supplied by Promocell (Cat No C-22020) for maximum 4 passages. For the assay 500 cells/well are seeded into black 384-well culture plates with clear bottom in 70 μl culture medium and incubated for 6 hours at 37° C., 5% CO2. 10 μl prediluted test compounds are added and cells incubated for 3 days at 37° C., 5% CO2 before measurement of DNA content. CyQUANT detection reagent is prepared according to the manufacturers protocol, 20 μl/well added and incubated at 37° C., 5% CO2 for at least 1 h before measurement of fluorescence at Envision multimode reader (Perkin-Elmer, Waltham) with excitation 480 nm and emission 535 nm (bottom read mode). The assay is performed as dose response with 10 compound dilutions. Inhibitory values (IC50) were determined using the program ASSAY ANALYZER® from GeneData (Basel, Switzerland).

IC50 (MetAP-2 [1])	Signal MetAp2/GAPDH normalized to untreated (DMSO) (MetAP-2 [2]; 0.1 μM, 6 hrs)	Signal MetAp2/GAPDH normalized to untreated (DMSO) (MetAP-2 [2]; 1 μM, 6 hrs)	Signal MetAp2/GAPDH normalized to untreated (DMSO) (MetAP-2 [2]; 1 μM, 48 hrs)	reduction of MetAP-2 protein (MetAP-2 [2]; 1 μM, after 6 h)	reduction of MetAP-2 protein (MetAP-2 [2]; 1 μM, after 24 h)	Signal MetAp2/GAPDH normalized to untreated (DMSO) (MetAP-2 [2]; 10 μM, 6 hrs)	Signal MetAp2/GAPDH normalized to untreated (DMSO) (MetAP-2 [2]; 10 μM, 48 hrs)	reduction of MetAP-2 protein (MetAP-2 [2]; 10 μM, after 6 h)	reduction of MetAP-2 protein (MetAP-2 [2]; 10 μM, after 48 h)	Compound	IC50 [3]
0.19 µM	1.3	0.9	1.2	15%	40%	0.9	0.3	10%	70%	O=C1CCC(N2C(=O)c3cccc(NCCOCCOCCOCCOCCOCCNC(=O)c4cc5cc(N6CCC(O)(C(=O)NCc7cc(F)cc(F)c7)C6=O)ccc5[nH]4)c3C2=O)C(=O)N1 (stereo not shown) [Compound A1, 5-[3-[(3,5-difluorophenyl)methylcarbamoyl]-3-hydroxy-2-oxo-pyrrolidin-1-yl]-N-[2-[2-[2-[2-[2-[2-[[2-(2,6-dioxo-3-piperidyl)-1,3-dioxo-isoindolin-4-yl]amino]ethoxy]ethoxy]ethoxy]ethoxy]ethoxy]ethyl]-1H-indole-2-carboxamide]	25 µM
0.25 µM	1.3	1.6	1.5			1.1	0.8		20%	O=C1CCC(N2C(=O)c3ccc(NCCOCCOCCOCCOCCNC(=O)c4cc5cc(N6CCC(O)(C(=O)NCc7cc(F)cc(F)c7)C6=O)ccc5[nH]4)cc3C2=O)C(=O)N1 (stereo not shown) [Compound A2, 5-[3-[(3,5-difluorophenyl)methylcarbamoyl]-3-hydroxy-2-oxo-pyrrolidin-1-yl]-N-[2-[2-[2-[2-[2-[[2-(2,6-dioxo-3-piperidyl)-1,3-dioxo-isoindolin-5-yl]amino]-ethoxy]ethoxy]ethoxy]ethoxy]ethyl]-1H-indole-2-carboxamide]	30 µM
